The values below are quoted from earlier work in patent publication US20240307311A1, “STARCH BASED PRINTABLE MATERIALS” (ROQUETTE FRERES, priority 2021, published 2024).

With `Cn1c(=O)c2c(ncn2CC(O)CO)n(C)c1=O` (centres unmarked) [diprophylline], the “solubility in water (descriptive class)” value is “freely soluble in water”.

For the compound `CCC(C)n1ncn(-c2ccc(N3CCN(c4ccc(OCC5COC(Cn6cncn6)(c6ccc(Cl)cc6Cl)O5)cc4)CC3)cc2)c1=O` (centres unmarked) [itraconazole], the “solubility in water (descriptive class)” value was “practically insoluble in water”.
